Measurements from a melting point compilation (Tetko et al.; mined from patent text by program, amines drawn as free bases though some values may be those of a salt).

SMILES | melting point
CC(C)Oc1ccc(CCCOc2cc(CCC(=O)O)n(C)n2)c(Oc2ncc(Cl)cc2Cl)c1 | 77 to 78 °C
COC(=O)c1cc(C(=O)CBr)c(OC(C)=O)cc1NC(=O)C(F)(F)F | 260 to 261 °C
C(=C/c1cn(C(c2ccccc2)(c2ccccc2)c2ccccc2)cn1)/CCOCc1ccccc1 | 101 to 104 °C
CCN(CC)C(=O)OCC1CN(C(=O)c2cc(OC)c(OC)c(OC)c2)CCN1C(=S)c1cc(OC)c(OC)c(OC)c1 (centres undefined) | 175 °C
O=C1N(c2c(Cl)cccc2Cl)Cc2cnc(Nc3cccc4ccccc34)nc2N1c1ccccc1 | 213 to 214 °C
CCCc1ccccc1OCCCCCOc1coc(C=O)cc1=O | 95 to 96 °C
NC(=O)C1CCCc2ccc(-c3ccccc3)nc21 (centres undefined) | 145 °C
CS(=O)(=O)c1ccc(C=Cc2ccc(NCCCCCCO)cc2)cc1 | 113 to 115 °C
FC(F)(F)c1ccc(I)c(I)c1 | 62 to 64 °C
CC(=O)c1ccc(S(=O)(=O)N2CCCC2c2ccc(F)cc2)cc1 (racemic) | 148 °C
O=[N+]([O-])c1ccc(N2C[C@@H]3C[C@H]2CO3)c(F)c1 | 106 to 108 °C
CC(=O)c1ccc(-c2cc(N3CCCCC3)c(C#N)c3c2-c2ccccc2C3)cc1 | 182 to 184 °C
O=CC=Cc1c(C2CC2)nc2ccccc2c1-c1ccc(F)cc1 | 146 to 147 °C
CCOC(=O)COc1cc(O)ccc1C(=O)c1ccc(OCc2nc(-c3ccccc3)oc2C)cc1 | 184 to 186 °C
Cc1nc(-c2ccccc2)cc(-c2cccc(C#N)c2)c1C(=O)NCCN1CCOCC1 | 166 to 168 °C
Cc1nc(C)n(-c2cc(C)c3[nH]c(=O)ccc3c2)c1I | 242 to 245 °C
CCCCOc1cc(C(=O)O)n(Cc2ccc(C(F)(F)F)cc2)n1 | 128 to 129 °C
N=C(N)Nc1nc(CSCCC(N)=O)cs1 | 193 to 194 °C
Cc1c(N)ccc(Cc2ccc(N)c(C)c2C)c1C | 141 to 143 °C
Fc1cccc(CSc2nnc(-c3ccnc(Nc4ccccn4)c3)o2)c1 | 141 to 142 °C
C=CCN1C(=O)NC(=C(C(=O)OCC)C(=O)OCC)C1=O | 91 to 92 °C
Cc1ccc(NS(=O)(=O)c2cccc(C#N)c2)c2[nH]cc(C#N)c12 | 220 to 221 °C
CC(C)N(C)C(=O)COCCCCCCCC[C@H]1C[C@]2(C)[C@@H](O)CC[C@H]2[C@@H]2CCc3cc(O)ccc3[C@@H]12 | 126 °C
CCCCCC(CCCCC)n1c(=O)sc2c(=O)[nH]c(N)nc21 | > 195 °C
CCOC(=O)C=Cc1cc(OCc2ccccc2)ccc1-c1ccc(-c2cccc(C(F)(F)F)c2)c(C=O)c1 | 116 to 118 °C

SMILES | melting point
Cn1ncc2c1CC(C)(C)C(C=O)C2=O (centres undefined) | 131 to 132 °C
CCCc1c(OCCCCCOc2cccc(NC(=O)C(=O)O)c2)ccc(C(C)=O)c1O | 117 to 118 °C
CCCCCCc1ccc(CCCCC(COC(C)=O)(COC(C)=O)NC(C)=O)cc1 | 61 to 64 °C
COC(=O)COc1ccc(N=C=O)cc1 | 50 to 53 °C
Cc1ccccc1C(=O)N(c1ccccc1)c1ccc(OCCN(C)C)cc1 | 98.5 to 102 °C
CNS(=O)(=O)c1cc(C(=O)OC)cc(N2CCCC2)c1Oc1ccccc1 | 138 to 139 °C
NNC(=O)c1ncccn1 | 173 to 175 °C
Cc1cc(N(C)S(C)(=O)=O)ccc1I | 85 to 87 °C
CCOC(=O)c1cc2c(C)cccc2n1CCC(=O)O | 133 to 134 °C
COc1ccc(-c2cc(CN3C(=O)c4ccccc4C3=O)c(=O)n(Cc3ccc(Cl)cc3)n2)cc1F | 212 to 214 °C
CN1C(=O)CN=C(c2cccc(Cl)c2)c2cc(C(O)(c3ccc(Cl)cc3)c3cncn3C)ccc21 (centres undefined) | 226 °C
CC(C)(C)CNc1cc(Cl)nc(NC(C)(C)C)n1 | 110 to 111 °C
c1ccc(C(c2ccc3[nH]nnc3c2)n2ccnc2)cc1 (centres undefined) | 179 °C
Nc1ncnc2nsnc12 | 247 to 249 °C
CC(Oc1ccc(C(=O)O)cc1)c1ccccc1OCc1ccccc1 (centres undefined) | 203 to 204 °C
Cc1nnnn1-c1ccc(/C(=C\C2CCCC2)C(=O)O)cc1F | 182 to 185 °C
Cc1cc(CBr)c(CBr)cc1C | 116 to 120 °C
Fc1cc(C(F)(F)F)ccc1/C=C/c1nc(COc2ccc(-c3nc(Cn4ccnc4)co3)cc2)co1 | 150 to 153 °C
CCOc1c(C)c(N2CCN(c3ccc(F)cc3)CC2)c(C)c2c1OC(C)(C)C2 | 163 to 165 °C
CCOC(=O)c1[nH]c2ccc(Cl)c(F)c2c1S(=O)(=O)c1cc(C)cc(C)c1 | 224 to 226 °C
Cc1cc(Br)ccc1C(CO)NC(=O)c1c(Cl)cncc1Cl (centres undefined) | 192 to 194 °C
CCN(CC)C(=O)C1CCC2C3CNC4=CC(=O)C=CC4(C)C3CCC12C (centres undefined) | > 250 °C
Cc1nc(-c2cc3cc(OCCNC[C@H](O)COc4ccccc4Cl)ccc3o2)no1 | 106 to 108 °C
COc1ccc2[nH]cc(C3=C(c4c[nH]c5ccc(OC)cc45)C(=O)N(C)C3=O)c2c1 | > 290 °C
CN(Cc1cccc2c1C(=O)N(C1CCC(=O)NC1=O)C2=O)C(=O)Nc1ccc(Cl)cc1 (centres undefined) | 279 to 281 °C

SMILES | melting point
CCc1ccc2nc(-c3ccc(-c4ccccc4)cc3)c(N)c(C(=O)O)c2c1 | 240 to 241 °C
CC(C)(O)c1ccc(-c2nn(Cc3ccccc3)c3ccccc23)o1 | 124 to 127 °C
CCOc1cc2ncc(C#N)c(Nc3ccc4c(c3)OCO4)c2cc1OCC | 200 to 203 °C
CSc1nc(Cl)c2cc(Br)ccc2n1 | 124 °C
CCCCC1(O)CCC2C3CCC4=CC(=O)CC(C)C4(C)C3CCC21C (centres undefined) | 85 °C
COC(=O)C1=C(C)NC(C)=C(C(=O)OCCN2C(=O)c3ccccc3C2=O)C1c1cccc(C)c1 (centres undefined) | 188 to 190 °C
c1ccc2c(NC3CCCC3)nnc(Cc3ccncc3)c2c1 | 163 to 165 °C
COc1cc(Nc2nccc(-c3ccc(NC4CCN(Cc5ccccc5)CC4)nc3)n2)cc(OC)c1OC | 113 to 114 °C
CC(=O)N1CCc2cc(C(=O)CCCN3CCC(c4noc5cc(F)ccc45)CC3)sc2C1 | 145 to 147 °C
CCOC(=O)c1c(C)cc2nc(CO)n(-c3ccccc3Cl)c(=O)c2c1C | 151 to 152 °C
c1cnn(Cc2ccc3c(c2)Cc2c(-c4ccsc4)n[nH]c2-3)c1 | 262 to 270 °C
Cc1ccc2c3c(ccc2n1)OCC(CNCC1CCc2[nH]c4ccc(Cl)cc4c2C1)O3 (centres undefined) | 104 to 105 °C
COc1cc(OC)nc(N(C)C(=O)NS(=O)(=O)c2ccccc2OC(F)(F)F)n1 | 162 °C
C=CS(=O)(=O)c1ccc(C(=O)O)cc1 | 228 °C
COCC(=O)N[C@H]1c2ccccc2C[C@@H]1C | 78 to 79 °C
COc1cc(OC)c2c(=O)c(OCCOc3ccc(C(C)=O)cc3)c(-c3ccc(OC)c(OC)c3)oc2c1 | 143 to 144 °C
COC(=O)C1=C(C)Nc2c(c(=O)n(C)c(=O)n2C)C1c1cccc([N+](=O)[O-])c1 (centres undefined) | > 230 °C
O=C(CCc1ccccc1)Nc1cccc(C(=O)NN=C2C(=O)Nc3ccc(I)cc32)c1 | 293 °C
CCCCN(C1CCCOc2ccccc21)S(=O)(=O)CC (centres undefined) | 62 to 65 °C
C=CCN1C(=O)NC(C)(C)C1=O | 66.2 to 68.7 °C
COC(=O)C1C(C(OC(=S)Oc2ccc(C)cc2)C(C)C)C1(C)C (centres undefined) | 92 to 93 °C
CC(Oc1ccc(CCNCC(O)COc2ccccc2)cc1)C(N)=O (centres undefined) | 117 to 119 °C
CN(C)C=Nc1n[nH]c2ncnc(Nc3cccc(Cl)c3)c12 | 243 to 245 °C
Cc1cc(CCCOc2ccc(-c3noc(C(F)(F)F)n3)cc2)on1 | 68 to 69 °C
O=C(N[C@H]1CCCNC1=O)c1ccc(F)c(F)c1 | 202 to 204 °C

SMILES | melting point
O=C(O)/C=C/C(=O)c1ccoc1 | 104 to 106 °C
CCn1c(=S)sc2c(=N)n(NC(=O)c3ccco3)cnc21 | 226 °C
CC(=O)N1CCC(C(=O)c2nccn2CCc2ccccc2)CC1 | 113 to 116 °C
O=C(NCc1ccc2ccccc2c1)C1=C(C(=O)Nc2cc(OC3CCCC3)c(Cl)cc2F)CCCC1 | 174 to 175 °C
CCc1nn(CCCO)c(CC)c1Oc1cc(C#N)cc(C#N)c1 | 93 to 95 °C
COc1cc(COc2nn(-c3ccccc3)cc2/C=C/C(C)=O)ccc1OCc1nc(-c2ccco2)oc1C | 177 to 178 °C
NC(=O)c1sc2nccc(N3CCN(c4ccccc4)CC3)c2c1N | 250 to 252 °C
C[C@@H]([C@@H](O)c1ccc(OCc2ccccc2)cc1)N1CCC(O)(c2ccccc2)CC1 | 158 to 161 °C
COc1ccc2c3cc(C(=O)N4CCCCC4)ccc3n(CC3CCCCC3)c2c1 | 91 to 92 °C
COC(=O)c1cc(OC)c(O)c(C23CC4CC(CC(C4)C2)C3)c1 | 179 °C
CC1(C)CC(=S)Nc2ccc(-c3cccc(Cl)c3)cc21 | 197 to 198 °C
COc1cccc(COc2ccc(-c3cccc(NC(Cc4ccccc4)C(=O)O)c3)cc2)c1 (centres undefined) | 159 to 162 °C
COc1ccc(C2(C#N)CCC(=C3SCCCS3)CC2)cc1OC1CCCC1 (centres undefined) | 115 to 116 °C
CCOC(=O)c1ncn(-c2nncs2)c1S(=O)(=O)NC(=O)Nc1nc(OC)cc(OC)n1 | 169 to 171 °C
O=C(CC(=O)C1CC1)c1ccncn1 | 81 to 84 °C
CSCC[C@H](NC(=O)c1cc(NC(Cn2ccnc2)c2ccc(F)cc2)ccc1Cc1ccc(F)cc1)C(=O)O (some centres undefined) | 130 to 135 °C
CC1(C)OC2OC(C3NC(=O)CC3O)C(O)C2O1 (centres undefined) | 263 to 265 °C
CCCC1=C(C(=O)OCC)C(c2ccccc2Cl)c2cnn(C(=O)OC(C)(C)C)c2N1 (centres undefined) | 112 to 116 °C
Cc1cc(C(=O)N2Cc3ccc(C(=O)N(C)CC(O)CO)n3Cc3ccccc32)ccc1-c1ccccc1C(F)(F)F (centres undefined) | 169 to 172 °C
O=C(Nc1c(Cl)cccc1Cl)c1cccc2cccnc12 | 168 to 169 °C
C#CCN1CCC(OC)(c2cccc(OCc3ccc4ccccc4c3)c2)C1 (centres undefined) | 63 to 65 °C
CC(=O)N[C@@H](CS)C(=O)NCCSC(C)=O | 153 to 154 °C
COC(=O)C1CCC2C(CCC3C(C)(C)CCCC23C)C(=O)C1 (centres undefined) | 67 to 68 °C
N#CC(=Cc1ccc2[nH]ccc2c1)S(=O)(=O)c1ccc(OC(F)(F)F)cc1 | 171 to 175 °C
